Measured values from patent EP4741383A1, “COMPOUND AND USE THEREOF AS ANTI-CANCER DRUG” (Tyligand Bioscience (Shanghai) Limited, priority 2023, dated 2025).

Experiments:
Type in all cases: biochemical
[1] = molecular target: T1, Laforin (Homo sapiens, UniProt O95278); test: Tyrosine phosphatase selectivity (pNPP substrate), Laforin; conditions: for IC50: Laforin, pNPP substrate; for IC50PTP/IC50SHP2 Laforin: selectivity ratio Laforin over SHP2
T1 construct: made in house; host or cells: E. coli
T1 sequence (O95278 1-331): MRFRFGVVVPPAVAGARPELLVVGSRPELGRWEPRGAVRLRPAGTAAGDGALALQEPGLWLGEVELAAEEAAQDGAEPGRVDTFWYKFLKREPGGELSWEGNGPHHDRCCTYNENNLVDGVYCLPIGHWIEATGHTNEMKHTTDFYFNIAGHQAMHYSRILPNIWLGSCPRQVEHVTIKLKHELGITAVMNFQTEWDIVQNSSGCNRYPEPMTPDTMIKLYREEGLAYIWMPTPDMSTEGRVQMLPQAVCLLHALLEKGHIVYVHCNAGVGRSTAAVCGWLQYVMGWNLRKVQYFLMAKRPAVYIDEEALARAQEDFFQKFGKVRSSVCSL
Method: (§1) This experiment evaluated the selectivity of the disclosed compounds against tyrosine phosphatases, including SHP1, HePTP, Laforin, LMWPTP, LYP, PTP1B, PRL2, SSU72, VHR, FAP1, STEP, CDC14A, CD45, MEG2, and PP5, all expressed and purified from E. coli.
(§2) Phosphatase activity was measured using p-nitrophenyl phosphate (pNPP) (Fisher Scientific) as the substrate in 50 mM 3,3-dimethylglutaric acid buffer (pH 7.0, containing 1 mM EDTA), with ionic strength adjusted to 0.15 M with NaCl. […] After 10-60 minutes, the reaction was quenched by adding 20 µL of 5 N NaOH. Wells without enzyme were used as controls for correction. The amount of the product, p-nitrophenol, was determined by measuring the absorbance at 405 nm using a Spectra MAX340 microplate spectrophotometer (Molecular Devices), with a molar extinction coefficient of 18000 M^-1cm^-1.
(§3) Data were analyzed using GraphPad Prism software. Dose-response curves were obtained by fitting data using the nonlinear S-curve regression Dose-response-inhibition equation, and IC50 values were calculated.

[2] = molecular target: T2, PP5 (Homo sapiens, UniProt P53041); test: Tyrosine phosphatase selectivity (pNPP substrate), PP5; conditions: for IC50: PP5, pNPP substrate; for IC50PTP/IC50SHP2 PP5: selectivity ratio PP5 over SHP2
T2 construct: made in house; host or cells: E. coli
T2 sequence (P53041 1-499): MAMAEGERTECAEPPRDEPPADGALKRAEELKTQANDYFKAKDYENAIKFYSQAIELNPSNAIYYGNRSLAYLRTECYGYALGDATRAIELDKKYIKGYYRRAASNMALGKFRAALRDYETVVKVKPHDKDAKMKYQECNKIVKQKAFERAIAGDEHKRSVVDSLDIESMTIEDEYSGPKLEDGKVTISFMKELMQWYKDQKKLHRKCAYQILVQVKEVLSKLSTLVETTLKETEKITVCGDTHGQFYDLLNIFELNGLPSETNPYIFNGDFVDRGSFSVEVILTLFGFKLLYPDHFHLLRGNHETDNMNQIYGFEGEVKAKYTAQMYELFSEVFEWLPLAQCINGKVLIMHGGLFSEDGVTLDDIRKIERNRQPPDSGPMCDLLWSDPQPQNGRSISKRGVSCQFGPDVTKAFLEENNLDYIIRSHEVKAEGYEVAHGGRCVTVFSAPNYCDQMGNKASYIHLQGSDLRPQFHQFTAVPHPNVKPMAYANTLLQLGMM
Method: as §1, §2, §3

[3] = molecular target: T3, LYP (Homo sapiens, UniProt Q9Y2R2); test: Tyrosine phosphatase selectivity (pNPP substrate), LYP; conditions: for IC50: LYP, pNPP substrate; for IC50PTP/IC50SHP2 LYP: selectivity ratio LYP over SHP2
T3 construct: made in house; host or cells: E. coli
T3 sequence (Q9Y2R2 1-807): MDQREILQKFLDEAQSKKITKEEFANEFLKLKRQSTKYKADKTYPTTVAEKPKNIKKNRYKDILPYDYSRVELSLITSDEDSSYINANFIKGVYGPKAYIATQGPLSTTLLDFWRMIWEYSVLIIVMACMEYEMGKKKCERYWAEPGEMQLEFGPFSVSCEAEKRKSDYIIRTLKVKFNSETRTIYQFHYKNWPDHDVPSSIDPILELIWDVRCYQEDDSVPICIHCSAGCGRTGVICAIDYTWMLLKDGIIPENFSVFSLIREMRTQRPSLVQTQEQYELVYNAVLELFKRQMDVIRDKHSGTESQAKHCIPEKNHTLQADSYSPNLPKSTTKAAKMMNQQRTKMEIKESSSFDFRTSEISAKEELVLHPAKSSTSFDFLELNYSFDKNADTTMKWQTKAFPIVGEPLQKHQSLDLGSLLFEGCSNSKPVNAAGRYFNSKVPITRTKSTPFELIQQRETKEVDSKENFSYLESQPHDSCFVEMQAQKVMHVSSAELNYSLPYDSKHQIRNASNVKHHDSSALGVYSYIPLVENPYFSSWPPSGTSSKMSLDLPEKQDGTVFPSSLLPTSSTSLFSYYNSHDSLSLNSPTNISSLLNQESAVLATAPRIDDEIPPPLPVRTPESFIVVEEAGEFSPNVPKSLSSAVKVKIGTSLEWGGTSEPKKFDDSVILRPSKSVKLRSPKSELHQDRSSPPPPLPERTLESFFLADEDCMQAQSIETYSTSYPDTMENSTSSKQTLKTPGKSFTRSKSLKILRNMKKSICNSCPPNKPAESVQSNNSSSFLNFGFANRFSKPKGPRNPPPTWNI
Method: as §1, §2, §3

[4] = molecular target: T4, HePTP (Homo sapiens, UniProt P35236); test: Tyrosine phosphatase selectivity (pNPP substrate), HePTP; conditions: for IC50: HePTP, pNPP substrate; for IC50PTP/IC50SHP2 HePTP: selectivity ratio HePTP over SHP2
T4 construct: made in house; host or cells: E. coli
T4 sequence (P35236 1-360): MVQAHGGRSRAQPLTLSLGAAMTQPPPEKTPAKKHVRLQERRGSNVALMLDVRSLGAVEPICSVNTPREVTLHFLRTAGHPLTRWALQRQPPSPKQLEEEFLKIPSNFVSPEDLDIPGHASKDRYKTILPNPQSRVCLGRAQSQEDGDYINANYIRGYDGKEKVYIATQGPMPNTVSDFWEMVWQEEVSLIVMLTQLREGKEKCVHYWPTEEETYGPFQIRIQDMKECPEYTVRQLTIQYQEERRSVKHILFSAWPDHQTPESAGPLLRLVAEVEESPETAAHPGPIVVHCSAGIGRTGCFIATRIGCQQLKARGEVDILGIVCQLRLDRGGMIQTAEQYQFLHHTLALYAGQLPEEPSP
Method: as §1, §2, §3

[5] = molecular target: T5, SHP1 (Homo sapiens, UniProt P29350); test: Tyrosine phosphatase selectivity (pNPP substrate), SHP1; conditions: for IC50: SHP1, pNPP substrate; for IC50PTP/IC50SHP2 SHP1: selectivity ratio SHP1 over SHP2
T5 construct: made in house; host or cells: E. coli
T5 sequence (P29350 whole entry): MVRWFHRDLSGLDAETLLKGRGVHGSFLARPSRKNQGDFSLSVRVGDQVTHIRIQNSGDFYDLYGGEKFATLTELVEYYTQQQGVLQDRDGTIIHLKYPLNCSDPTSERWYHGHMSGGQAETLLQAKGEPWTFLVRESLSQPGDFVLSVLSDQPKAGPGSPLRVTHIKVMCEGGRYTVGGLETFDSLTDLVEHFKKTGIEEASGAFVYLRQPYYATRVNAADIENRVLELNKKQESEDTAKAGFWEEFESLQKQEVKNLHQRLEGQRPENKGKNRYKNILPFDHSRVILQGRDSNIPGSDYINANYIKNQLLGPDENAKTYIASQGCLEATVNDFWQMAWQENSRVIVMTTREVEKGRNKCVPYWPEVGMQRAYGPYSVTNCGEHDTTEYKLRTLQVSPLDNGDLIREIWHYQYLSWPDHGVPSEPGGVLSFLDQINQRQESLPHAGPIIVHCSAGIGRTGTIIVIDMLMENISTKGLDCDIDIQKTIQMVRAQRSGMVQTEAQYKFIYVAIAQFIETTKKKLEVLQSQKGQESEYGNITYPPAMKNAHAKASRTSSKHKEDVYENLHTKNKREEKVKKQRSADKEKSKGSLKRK
Method: as §1, §2, §3

[6] = molecular target: T6, LMWPTP (Homo sapiens, UniProt P24666); test: Tyrosine phosphatase selectivity (pNPP substrate), LMWPTP; conditions: for IC50: LMPTP*, pNPP substrate; for IC50PTP/IC50SHP2 LMPTP*: selectivity ratio LMPTP* over SHP2
T6 construct: made in house; host or cells: E. coli
T6 sequence (P24666 1-158): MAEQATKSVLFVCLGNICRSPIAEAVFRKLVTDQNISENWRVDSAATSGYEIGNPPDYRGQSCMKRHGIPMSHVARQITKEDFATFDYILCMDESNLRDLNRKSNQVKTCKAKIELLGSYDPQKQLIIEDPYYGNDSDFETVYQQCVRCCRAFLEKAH
Method: as §1, §2, §3

Row | IC50 [1] [nM] | IC50PTP/IC50SHP2 Laforin [1] | IC50 [2] [nM] | IC50PTP/IC50SHP2 PP5 [2] | IC50 [3] [nM] | IC50PTP/IC50SHP2 LYP [3] | IC50 [4] [nM] | IC50PTP/IC50SHP2 HePTP [4] | IC50 [5] [nM] | IC50PTP/IC50SHP2 SHP1 [5] | IC50 [6] [nM] | IC50PTP/IC50SHP2 LMPTP* [6] | SMILES
1 | > 20000 | 689.7 | > 50000 | 1724.1 | 500 | 17.2 | 4500 | 155.2 | 600 | 20.7 | > 20000 | 689.7 | O=C(Nc1ccc(-c2ccsc2)cc1)C(=O)Nc1ccc(-c2cc3cc(F)c(-c4nnn[nH]4)cc3n2C2CCC2)cc1 [Example 4]
2 | 12200 | 112 | – | – | 1050 | 9.7 | 1030 | 9.5 | 800 | 7.4 | 2340 | 21.6 | Cn1c(-c2cccc(NC(=O)C(=O)Nc3ccc(-c4ccsc4)cc3)c2)c(I)c2cc(C(=O)O)c(O)cc21 [Example 11a-1, reference compound]
3 | 6210 | 182 | > 100000 | 2941 | 76 | 2.2 | 950 | 27.9 | 110 | 3.2 | 1370 | 40.2 | O=C(Nc1ccc(-c2cc3cc(F)c(-c4nnn[nH]4)cc3n2C2CCC2)cc1)C(=O)Nc1ccc(N2CCC3(CCOC3)CC2)cc1 [Example 67]
4 | > 25000 | 520.8 | > 25000 | 520.8 | 1540 | 32.1 | 1170 | 29.3 | 383 | 8.0 | 370 | 7.7 | CC1(n2c(-c3ccc(NC(=O)C(=O)Nc4ccc(N5CCC6(CCOC6)CC5)cc4)cc3)cc3cc(F)c(-c4nnn[nH]4)cc32)CCC1 [Example 68]
5 | 2440 | 33.8 | > 100000 | 1388 | 100 | 1.3 | 1060 | 14.7 | 100 | 1.3 | 2130 | 29.5 | O=C(Nc1ccc(-c2cc3cc(F)c(-c4nnn[nH]4)cc3n2C2CCC2)cc1)C(=O)Nc1ccc(N2CC3COCC3C2)cc1 (stereo not shown) [Example 114]
6 | > 100000 | 709.2 | > 100000 | 709.2 | 1070 | 7.6 | 1330 | 9.4 | 320 | 2.3 | 2480 | 17.6 | Cn1cc(-c2ccc(NC(=O)C(=O)Nc3ccc(-c4cc5cc(F)c(-c6noc(=O)[nH]6)cc5n4C4CCC4)cc3)cc2)cn1 [Example 123]
7 | > 100000 | 139.7 | > 100000 | 139.7 | > 100000 | 139.7 | > 100000 | 139.7 | 5620 | 7.8 | > 20000 | 27.9 | Cn1cc(-c2ccc(NC(=O)C(=O)Nc3ccc(-c4cc5cc(F)c(-c6nnc(C(F)(F)F)[nH]6)cc5n4C4CCC4)cc3)cc2)cn1 [Example 124]
8 | > 20000 | 800 | > 50000 | 2000 | 1200 | 48 | > 20000 | 800 | 600 | 24.0 | > 20000 | 800 | O=C(Nc1ccc(-c2ccsc2)cc1)C(=O)Nc1ccc(-c2oc3cc(F)c(-c4nnn[nH]4)cc3c2C2CCC2)cc1 [Example 130]

Row | SMILES | IC50 [1] [nM] | IC50PTP/IC50SHP2 Laforin [1] | IC50 [2] [nM] | IC50PTP/IC50SHP2 PP5 [2] | IC50 [3] [nM] | IC50PTP/IC50SHP2 LYP [3] | IC50 [4] [nM] | IC50PTP/IC50SHP2 HePTP [4] | IC50 [5] [nM] | IC50PTP/IC50SHP2 SHP1 [5] | IC50 [6] [nM] | IC50PTP/IC50SHP2 LMPTP* [6]
9 | O=C(Nc1ccc(-c2cc3cc(F)c(-c4nnn[nH]4)cc3n2C2CCC2)cc1)C(=O)Nc1ccc(N2CCOCC2)cc1 [Example 47] | 610 | 9.6 | > 100000 | 1587 | 189 | 3.0 | 800 | 12.6 | 120 | 1.9 | 1090 | 17.3
10 | O=C(Nc1ccc(-c2oc3cc(F)c(-c4nnn[nH]4)cc3c2C2CCC2)cc1)C(=O)Nc1ccc(N2CCC3(CCOC3)CC2)cc1 [Example 125] | > 100000 | 1960.8 | > 100000 | 1960.8 | 2500 | 49.0 | 35900 | 703.9 | 170 | 3.3 | 2240 | 43.9
11 | O=C(Nc1ccc(-c2ccsc2)cc1)C(=O)Nc1ccc(-c2cc3ccc(-c4nnn[nH]4)nc3n2C2CCC2)cc1 [Example 129] | > 20000 | 339.0 | > 50000 | 847.5 | 1200 | 20.3 | > 20000 | 339.0 | 700 | 11.9 | > 20000 | 339.0
